Results published in PMC8838411, “Disrupting the MAD2L2-Rev1 Complex Enhances Cell Death upon DNA Damage” (Molecules, 2022).

Columns and labels:
[1] = biological target: T1, GST-MAD2L2 (Homo sapiens, UniProt Q9UI95); experiment: field-effect biosensing (FEB, Agile R100), immobilised protein; format: binding; details: PBS; compound 1-50 μM; Hill fit or kon/koff
T1 construct: GST fusion, expressed in E. coli BL21 Star, standard GST purification, amine-immobilised on graphene chip

[2] = biological target: T2, MAD2L2-Rev1 complex (myc-MAD2L2 and YFP-Rev1) (Homo sapiens, UniProt Q9UI95); experiment: co-immunoprecipitation (GFP-Trap), immunoblot; format: cell-based; details: HEK293 cells, 50 μM compound, 24 h
T2 construct: stoichiometry from the docking model; with DNA repair protein REV1
T2 sequence (Q9UI95 whole entry): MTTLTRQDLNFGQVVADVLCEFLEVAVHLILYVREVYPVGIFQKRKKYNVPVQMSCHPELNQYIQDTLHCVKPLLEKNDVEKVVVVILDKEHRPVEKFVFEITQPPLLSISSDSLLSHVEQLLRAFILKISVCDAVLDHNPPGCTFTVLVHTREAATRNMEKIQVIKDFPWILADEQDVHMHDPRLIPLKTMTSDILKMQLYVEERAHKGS
T2 sequence (Q9UBZ9 whole entry partner): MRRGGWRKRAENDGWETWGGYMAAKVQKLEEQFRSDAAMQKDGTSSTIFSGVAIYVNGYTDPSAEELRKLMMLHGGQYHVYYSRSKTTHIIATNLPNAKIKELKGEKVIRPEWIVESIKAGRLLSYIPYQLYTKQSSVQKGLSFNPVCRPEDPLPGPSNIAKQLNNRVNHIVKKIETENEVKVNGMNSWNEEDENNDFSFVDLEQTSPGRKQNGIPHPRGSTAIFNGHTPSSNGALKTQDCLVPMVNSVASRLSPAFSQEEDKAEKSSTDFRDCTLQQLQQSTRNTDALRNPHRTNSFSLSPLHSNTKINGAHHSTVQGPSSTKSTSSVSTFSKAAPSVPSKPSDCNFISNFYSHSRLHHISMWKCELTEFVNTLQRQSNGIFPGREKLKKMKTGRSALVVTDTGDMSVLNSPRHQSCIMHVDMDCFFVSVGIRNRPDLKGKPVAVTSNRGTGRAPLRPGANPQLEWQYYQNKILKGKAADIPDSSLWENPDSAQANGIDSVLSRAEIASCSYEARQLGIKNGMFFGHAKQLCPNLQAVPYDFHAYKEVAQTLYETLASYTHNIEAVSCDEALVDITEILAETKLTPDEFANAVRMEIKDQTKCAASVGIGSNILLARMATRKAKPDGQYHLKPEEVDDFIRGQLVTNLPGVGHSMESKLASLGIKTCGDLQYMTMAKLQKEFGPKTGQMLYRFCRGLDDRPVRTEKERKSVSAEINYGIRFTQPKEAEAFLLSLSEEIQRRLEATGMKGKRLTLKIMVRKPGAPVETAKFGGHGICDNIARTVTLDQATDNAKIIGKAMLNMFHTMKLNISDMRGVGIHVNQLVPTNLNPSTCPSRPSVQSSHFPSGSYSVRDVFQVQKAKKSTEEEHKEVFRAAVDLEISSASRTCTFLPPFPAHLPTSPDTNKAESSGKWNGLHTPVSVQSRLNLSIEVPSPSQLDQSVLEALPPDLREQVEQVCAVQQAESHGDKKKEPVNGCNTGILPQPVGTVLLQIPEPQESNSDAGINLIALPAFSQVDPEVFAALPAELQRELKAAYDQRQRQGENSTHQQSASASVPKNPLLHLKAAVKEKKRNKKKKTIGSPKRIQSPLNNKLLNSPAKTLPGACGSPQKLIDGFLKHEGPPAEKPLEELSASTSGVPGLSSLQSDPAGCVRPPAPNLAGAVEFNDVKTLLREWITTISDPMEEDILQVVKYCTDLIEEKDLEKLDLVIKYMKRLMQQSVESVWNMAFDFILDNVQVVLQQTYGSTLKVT

[3] = biological target: T1, GST-MAD2L2; experiment: field-effect biosensing (FEB, Agile R100), immobilised protein; format: binding; details: PBS; compound 1-50 μM; Hill fit or kon/koff; unreliable

T1 sequence (Q9UI95 whole entry, the tested form may be a part): as the sequence (Q9UI95 whole entry) above

Kd [1] [µM] | % reduction of MAD2L2-Rev1 binding at 50 μM [2] | kD [3] [µM] | Substance
44.9 ± 2.06 | ~ 80% |  | ZINC25496030 [c#3]
 |  | 310.8 ± 32.96 | ZINC97017995 [c#2]
